Data: US20170119034A1, “COMPOSITIONS AND METHODS FOR MODIFYING PERCEPTION OF SWEET TASTE” (University of Florida Research Foundation, Inc., priority 2012, published 2017)

What was measured:
Type in all cases: in vivo, human
[1] = test system: strawberry flavor intensity (consumer panel); assay: Strawberry consumer panel: bivariate fit to strawberry flavor intensity; details: for relationship to strawberry flavor intensity / sensory perception: in words; for Parameter Estimates: Estimate: bivariate linear fit, X = content of the substance in strawberry fruit, Y = Flavor Intensity (FI)
Experimental: (§1) All consumer panels were approved by the University of Florida Institutional Review Board. […] Ages of panelist ranged from 18 to 71, with a median age of 24. Panelists self-classified themselves as 98 White or Caucasian, 11 Black or African-American, 1 Native American, Alaska Native or Aleutian, 41 Asian/Pacific Islander, and 15 Other. […] Fresh, fully-ripe strawberry fruit was removed from overnight 4° C. dark storage and allowed to warm to room temperature prior to sensory analysis. Each panelist was given one to two whole strawberries for evaluation, depending on cultivar availability. Panelist took a bite of each sample, chewed, and swallowed it. Ratings for overall liking and liking for texture were scaled on hedonic general labeled magnitude scale (gLMS) in the context of all pleasure/displeasure experiences. […] Scales were employed to mediate valid comparisons across subjects and sessions.
(§2) Bivariate analysis among individual measurements of samples allowed for linear fit, which includes summary of fit, analysis of variance, t-test, and correlation analysis for density ellipse. Two-way Ward hierarchical cluster analysis of all metabolite concentrations and strawberry samples accomplished in JMP.

[2] = test system: texture liking of strawberry fruit (consumer panel); assay: Strawberry consumer panel: bivariate fit to texture liking; details: bivariate linear fit; X = content of the substance in strawberry fruit, Y = Texture liking
Experimental: as §1, §2

[3] = test system: perceived sweetness intensity of strawberry fruit (consumer panel); assay: Strawberry consumer panel: multiple regression of volatile concentration against perceived sweetness intensity independent of glucose, fructose or sucrose; details: for negatively related to sweetness: sugar(s) of which the effect is independent: compounds negatively related to sweetness independent of at least one of the sugars; for enhancement of perceived intensity of sweetness independent of sugars: in words
Experimental: Step-wise multiple regressions of all volatile compounds against perceived intensity of sweetness is performed independent of either glucose, fructose, or sucrose concentration, separately (Table 6).
as §1
Multiple regressions were performed with the “enter” method in SPSS for identification of sweetness enhancing volatiles. Individual volatile compound concentrations were regressed using the “enter” method in SPSS Statistics (IBM Corp, Armonk, N.Y., USA).

| SMILES | relationship to strawberry flavor intensity / sensory perception [1] | Parameter Estimates-fit to Texture Liking: Estimate [2] | Parameter Estimates: Estimate [1] | negatively related to sweetness: sugar(s) of which the effect is independent [3] | enhancement of perceived intensity of sweetness independent of sugars [3] |
| --- | --- | --- | --- | --- | --- |
| CC/C=C/C=O [1576-87-0, (E)-pent-2-en-1-al] | enhancing toward flavor intensity | – | – | – | – |
| CCCCCC(=O)OCC [123-66-0] | no bearing on sensory perception | −0.0003354 | 0.002386 | – | – |
| CCC(C)COC(C)=O (centres unmarked) [624-41-9] | – | −0.03512 | 0.009696 | – | – |
| COC(=O)c1ccccc1N [134-20-3] | – | −4.493 | −0.8484 | – | – |
| CC(=O)OCC=C(C)C [1191-16-8, 3-methyl-2-buten-1-yl acetate] | – | – | – | exclusively independent of sucrose | – |
| C=CC(=O)CC [1629-58-9, 1-penten-3-one] | – | – | – | – | mutually independent of all three sugar |
| CC=C(C)C(=O)OCC [55514-48-2] | – | −2.984 | −0.1506 | – | – |
| CCCC(=O)OC(C)CCC (centres unmarked) [60415-61-4, 2-pentanyl butyrate] | – | – | – | – | mutually independent of all three sugar |
| CCCCCCCCOC(=O)C(C)CC (centres unmarked) [29811-50-5] | – | −0.1411 | 0.1055 | – | – |
| CCCCCC=O [66-25-1] | does not have a significant correlation to flavor intensity | 0.0005099 | 0.0002842 | – | – |
| CCC/C=C/CO [928-95-0] | – | −0.0133 | −0.0006379 | – | – |
| CCCC(=O)OCC [105-54-4, ethyl butyrate] | significant positive correlation with flavor intensity | – | – | – | – |
| C=C(C)C1CC=C(COC(C)=O)CC1 (centres unmarked) [15111-96-3] | – | −0.1056 | −0.2365 | – | – |
| C=CC(C)(O)CC/C=C(\C)CCC=C(C)C (centres unmarked) [40716-66-3] | – | 0.01941 | 0.01223 | – | – |
| COC1=C(C)OC(C)C1=O (centres unmarked) [4077-47-8, 4-methoxy-2,5-dimethyl-3(2H)-furanone] | significant positive correlation with flavor intensity | – | – | – | – |
| C/C=C/C(=O)OC [623-43-8] | – | −0.7133 | −0.101 | – | – |
| CCCC(=O)OC [623-42-7] | significant positive correlation with flavor intensity | 6.892e−05 | 0.0008905 | – | – |
| CCCC(=O)CC [589-38-8] | – | 0.4306 | 0.4621 | – | – |
| CCC(=O)CC [96-22-0] | – | 0.004596 | 0.05443 | – | – |
| CC(=O)OCCC(C)C [123-92-2] | – | −0.07997 | 0.005816 | – | – |
| CCCOC(C)=O [109-60-4] | – | −0.5137 | −0.05307 | – | – |
| CC(=O)CC(C)C [108-10-1, 4-Methyl-2-pentanone] | – | – | – | mutually independent of glucose and fructose | – |

| SMILES | relationship to strawberry flavor intensity / sensory perception [1] | Parameter Estimates-fit to Texture Liking: Estimate [2] | Parameter Estimates: Estimate [1] | negatively related to sweetness: sugar(s) of which the effect is independent [3] | enhancement of perceived intensity of sweetness independent of sugars [3] |
| --- | --- | --- | --- | --- | --- |
| C=CC(O)CC (centres unmarked) [616-25-1] | – | 0.06401 | 0.2097 | – | – |
| CCC/C=C/COC(C)=O [2497-18-9] | – | −0.02456 | 0.008248 | – | – |
| CCC(C)(C)O [75-85-4] | – | 0.3219 | 0.1051 | – | – |
| CCCCC(=O)OC [624-24-8] | – | 0.2596 | −0.1 | – | – |
| C=C[C@]1(C)CC[C@H](C(C)(C)O)O1 [5989-33-3] | – | 0.6605 | 0.7378 | – | – |
| CSC(C)=O [1534-08-3] | – | 0.06449 | 1.808 | – | – |
| O=C(O)CC(O)(CC(=O)O)C(=O)O [Citric] | – | −0.001831 | 0.01293 | – | – |
| CCCCCCCC=O [124-13-0] | – | −0.2865 | 0.3091 | – | – |
| CCCCC(=O)C(C)=O [96-04-8] | – | −0.09953 | 0.01959 | – | – |
| CCCCC(CC)COC(C)=O (centres unmarked) [103-09-3] | – | −1.955 | 0.01965 | – | – |
| O=C(O)CC(O)C(=O)O (centres unmarked) [Malic] | – | 0.05905 | 0.001142 | – | – |
| CCCCC=O [110-62-3] | negatively correlated to flavor | 0.1789 | −0.1249 | – | – |
| CCCCCOC(C)=O [628-63-7] | – | −0.1907 | 0.4892 | – | – |
| CCCCC/C=C\C=O [20664-46-4] | – | −0.04121 | 0.03985 | – | – |
| CCCCC/C=C/C=O [2548-87-0] | – | 1.345 | 0.6039 | – | – |
| CCCCCCC1CCC(=O)O1 (centres unmarked) [706-14-9] | – | 0.01485 | 0.02049 | – | – |
| CCC(O)C(=O)OC (centres unmarked) [29674-47-3] | – | 0.02693 | 0.207 | – | – |
| CC(=O)OCc1ccccc1 [140-11-4] | – | −0.0849 | 0.02204 | – | – |
| CCCCCO [71-41-0] | – | 0.3727 | 0.2445 | – | – |
| Cc1cc(C(C)(C)C)c(O)c(C(C)(C)C)c1 [128-37-0] | – | 0.2009 | 0.1227 | – | – |
| CCOC(=O)CC [105-37-3] | – | −0.01062 | −0.01371 | – | – |
